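Exposure lasted 48 hours, with cells grown in 96-well plates and compounds tested at five concentrations. GI50: concentration for 50% inhibition of growth.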 Active and inactive are the calls of the source. No stated cut-off is given here; in the data, active = GI50 up to about 1.1 µM and inactive = higher.
How the values were obtained:
Assay in all cases: inhibition of tumour cell growth, NCI panel, 48 h
COLO 205 = system: COLO 205
EKVX = system: EKVX
HOP-62 = system: HOP-62
HT-29 = system: HT-29
M14 = system: M14
Malme-3M = system: Malme-3M
NCI-H460 = system: NCI-H460
NCI-H522 = system: NCI-H522
OVCAR-4 = system: OVCAR-4
SF-295 = system: SF-295
SF-539 = system: SF-539
SNB-75 = system: SNB-75
SW-620 = system: SW-620
U-251 = system: U-251
UACC-257 = system: UACC-257
A498 = system: A498
LOX IMVI = system: LOX IMVI

SMILES	GI50 (COLO 205)	GI50 (EKVX)	GI50 (HOP-62)	GI50 (HT-29)	GI50 (M14)	GI50 (Malme-3M)	GI50 (NCI-H460)	GI50 (NCI-H522)	GI50 (OVCAR-4)	GI50 (SF-295)	GI50 (SF-539)	GI50 (SNB-75)	GI50 (SW-620)	GI50 (U-251)	GI50 (UACC-257)	GI50 (A498)	GI50 (LOX IMVI)
CC(C)(C)CC(C)(C)c1cc2c(O)c(c1)Cc1cc(C(C)(C)CC(C)(C)C)cc(c1O)Cc1cc(C(C)(C)CC(C)(C)C)cc(c1O)Cc1cc(C(C)(C)CC(C)(C)C)cc(c1O)C2	> 100 µM (inactive)	> 100 µM (inactive)	> 100 µM (inactive)	> 100 µM (inactive)	> 100 µM (inactive)	> 100 µM (inactive)	> 100 µM (inactive)	> 100 µM (inactive)	> 100 µM (inactive)	> 100 µM (inactive)	> 100 µM (inactive)	> 100 µM (inactive)	> 100 µM (inactive)	> 100 µM (inactive)	> 100 µM (inactive)		
O=C1OC(=O)c2c1nc1ccccc1c2-c1ccccc1	> 100 µM (inactive)		> 100 µM (inactive)	> 100 µM (inactive)	> 100 µM (inactive)	> 100 µM (inactive)	> 100 µM (inactive)	> 100 µM (inactive)	> 100 µM (inactive)	> 100 µM (inactive)	> 100 µM (inactive)	> 100 µM (inactive)	> 100 µM (inactive)	> 100 µM (inactive)	> 100 µM (inactive)	> 100 µM (inactive)	> 100 µM (inactive)
CC(NC(=O)c1ccccc1)C(=O)N(Cc1ccccc1)Cc1ccccc1 (centres undefined)	19.2 µM (inactive)		25.1 µM (inactive)	37.1 µM (inactive)	21 µM (inactive)	24.5 µM (inactive)	27.4 µM (inactive)	23.7 µM (inactive)	31.2 µM (inactive)	27.4 µM (inactive)	55.3 µM (inactive)	> 100 µM (inactive)	51.1 µM (inactive)	29.8 µM (inactive)	40.2 µM (inactive)	25.6 µM (inactive)	22.1 µM (inactive)
O=C(O)C1=C(O)C(C(=O)O)C23CCCCCCCCCCC12C(C(=O)O)C(O)=C3C(=O)O (centres undefined)	> 100 µM (inactive)	> 100 µM (inactive)		> 100 µM (inactive)	> 100 µM (inactive)	> 100 µM (inactive)	> 100 µM (inactive)	> 100 µM (inactive)		> 100 µM (inactive)	> 100 µM (inactive)		> 100 µM (inactive)	> 100 µM (inactive)	> 100 µM (inactive)		
CC1(S)CC2C(CC1Sc1ccccc1)C2(C)C (centres undefined)	> 100 µM (inactive)	> 100 µM (inactive)		> 100 µM (inactive)	> 100 µM (inactive)	> 100 µM (inactive)	> 100 µM (inactive)		> 100 µM (inactive)	> 100 µM (inactive)	> 100 µM (inactive)	> 100 µM (inactive)		> 100 µM (inactive)	> 100 µM (inactive)		
Cc1cc(Br)cc(C)c1NC(=O)C(=O)CC(=O)c1sc(-n2nc(-c3ccccc3)cc2-c2ccccc2)nc1C	> 100 µM (inactive)	> 100 µM (inactive)	> 100 µM (inactive)	> 100 µM (inactive)	> 100 µM (inactive)	> 100 µM (inactive)	> 100 µM (inactive)	> 100 µM (inactive)	> 100 µM (inactive)	> 100 µM (inactive)		49.9 µM (inactive)	> 100 µM (inactive)	> 100 µM (inactive)	> 100 µM (inactive)	> 100 µM (inactive)	> 100 µM (inactive)
CCn1c2ccccc2c2ccc3c(c21)C(=O)c1ccccc1C3=O	55.8 µM (inactive)	44.8 µM (inactive)	> 100 µM (inactive)	> 100 µM (inactive)	> 100 µM (inactive)	81.1 µM (inactive)		> 100 µM (inactive)	> 100 µM (inactive)	91.2 µM (inactive)	> 100 µM (inactive)	> 100 µM (inactive)	> 100 µM (inactive)	> 100 µM (inactive)	> 100 µM (inactive)	> 100 µM (inactive)	
CC(C)c1cccc(C(C)C)c1NC(=O)C(=O)C(C(=O)c1ccc2ccccc2c1)C1OC(=O)c2ccccc21 (centres undefined)	> 100 µM (inactive)	24.5 µM (inactive)	82.2 µM (inactive)	> 100 µM (inactive)	> 100 µM (inactive)	> 100 µM (inactive)	> 100 µM (inactive)	> 100 µM (inactive)	> 100 µM (inactive)	> 100 µM (inactive)	> 100 µM (inactive)		> 100 µM (inactive)	> 100 µM (inactive)	> 100 µM (inactive)	34 µM (inactive)	> 100 µM (inactive)
CC(=O)Nc1ccc(/C=c2\sc3nnc(/C=C/c4ccccc4)n3c2=O)cc1	> 50 µM (inactive)	> 50 µM (inactive)	> 50 µM (inactive)		> 50 µM (inactive)	> 50 µM (inactive)	> 50 µM (inactive)	> 50 µM (inactive)	> 50 µM (inactive)	> 50 µM (inactive)	> 50 µM (inactive)	> 50 µM (inactive)	> 50 µM (inactive)	> 50 µM (inactive)	> 50 µM (inactive)	> 50 µM (inactive)	> 50 µM (inactive)
CC1(C)C(=O)CCC(=O)C(C)(C)C2=CC=C(O2)C(C)(C)C(=O)CCC(=O)C(C)(C)C2=CC=C1O2	> 100 µM (inactive)	> 100 µM (inactive)	> 100 µM (inactive)	> 100 µM (inactive)		> 100 µM (inactive)	> 100 µM (inactive)	> 100 µM (inactive)	> 100 µM (inactive)	> 100 µM (inactive)			> 100 µM (inactive)	> 100 µM (inactive)	> 100 µM (inactive)	> 100 µM (inactive)	> 100 µM (inactive)
Cc1ccc(/C=C/C(=O)c2ccc(Cl)c(Cl)c2)cc1	> 100 µM (inactive)	> 100 µM (inactive)	> 100 µM (inactive)	> 100 µM (inactive)	> 100 µM (inactive)	> 100 µM (inactive)	> 100 µM (inactive)	> 100 µM (inactive)	> 100 µM (inactive)	> 100 µM (inactive)		> 100 µM (inactive)	> 100 µM (inactive)	> 100 µM (inactive)	> 100 µM (inactive)	> 100 µM (inactive)	> 100 µM (inactive)
CSC(=S)N(C)NC(=O)c1cccc(C(=O)NN(C)C(=S)SC)n1	> 100 µM (inactive)	16.1 µM (inactive)	17.1 µM (inactive)	3.06 µM (inactive)	14.6 µM (inactive)		6.11 µM (inactive)	15.2 µM (inactive)	10.3 µM (inactive)	3.44 µM (inactive)	24.5 µM (inactive)	34.3 µM (inactive)	32.7 µM (inactive)	18.6 µM (inactive)	7.48 µM (inactive)	28.2 µM (inactive)	31.4 µM (inactive)
S=C1NCCN1	> 100 µM (inactive)	> 100 µM (inactive)	> 100 µM (inactive)	> 100 µM (inactive)	> 100 µM (inactive)	> 100 µM (inactive)		> 100 µM (inactive)	> 100 µM (inactive)	> 100 µM (inactive)	> 100 µM (inactive)	> 100 µM (inactive)	> 100 µM (inactive)	> 100 µM (inactive)	> 100 µM (inactive)		> 100 µM (inactive)
COc1ccc(C(=O)C(c2ccc(OC)cc2)C2(O)C(=O)Nc3ccccc32)cc1 (centres undefined)		> 100 µM (inactive)		94.6 µM (inactive)	> 100 µM (inactive)	> 100 µM (inactive)		> 100 µM (inactive)		> 100 µM (inactive)	> 100 µM (inactive)	67.5 µM (inactive)	> 100 µM (inactive)	> 100 µM (inactive)	> 100 µM (inactive)		72.9 µM (inactive)
COC(=O)C1=C(C)N(NC(=O)c2ccccc2)C(C)(O)C12CCOC2=O (centres undefined)	> 100 µM (inactive)	> 100 µM (inactive)	> 100 µM (inactive)	> 100 µM (inactive)	> 100 µM (inactive)	0.0475 µM (active)	> 100 µM (inactive)	> 100 µM (inactive)	> 100 µM (inactive)	> 100 µM (inactive)	> 100 µM (inactive)		> 100 µM (inactive)	> 100 µM (inactive)	> 100 µM (inactive)	> 100 µM (inactive)	> 100 µM (inactive)
NC(=O)NCc1c(C(N)=O)ncn1Cc1ccccc1	> 100 µM (inactive)	> 100 µM (inactive)	> 100 µM (inactive)	> 100 µM (inactive)	> 100 µM (inactive)		> 100 µM (inactive)		> 100 µM (inactive)	> 100 µM (inactive)	> 100 µM (inactive)	> 100 µM (inactive)	> 100 µM (inactive)	> 100 µM (inactive)	> 100 µM (inactive)	> 100 µM (inactive)	> 100 µM (inactive)
Cn1c(=O)c(C(c2ccccc2)c2c(O)c3ccccc3n(C)c2=O)c(O)c2ccccc21	> 100 µM (inactive)	> 100 µM (inactive)		> 100 µM (inactive)	> 100 µM (inactive)	> 100 µM (inactive)	> 100 µM (inactive)	> 100 µM (inactive)	53.6 µM (inactive)	> 100 µM (inactive)	> 100 µM (inactive)	38.1 µM (inactive)	> 100 µM (inactive)	> 100 µM (inactive)	> 100 µM (inactive)		> 100 µM (inactive)
CN(C)CCNc1nc(-c2cccs2)cc(-c2cccs2)n1	12.1 µM (inactive)		18.7 µM (inactive)	7.5 µM (inactive)	12.4 µM (inactive)	15.5 µM (inactive)	3.85 µM (inactive)	> 10 µM (inactive)	> 10 µM (inactive)	14.3 µM (inactive)	15.1 µM (inactive)	23.8 µM (inactive)	13.9 µM (inactive)	10.7 µM (inactive)	11.6 µM (inactive)	11.9 µM (inactive)	10.5 µM (inactive)
